Values quoted from earlier work as cited in patent publication US20070117750A1, “METHOD FOR ENHANCED OCULAR DRUG PENETRATION” (priority 2005, published 2007).

Columns and labels:
[1] = topical instillation
[2] = topical ocular dose of 225 μg

SMILES	peak concentration time, aqueous humor [1] [min]	peak concentration time, iris ciliary/body ([1]; or first time interval that can be measured) [min]	systemic bioavailability [2] [%]
Clc1cccc(Cl)c1N=C1NCCN1 [clonidine]	15	2	–
CC(C(=O)O)c1ccc(-c2ccccc2)c(F)c1 (stereo not drawn) [flurbiprofen]	–	–	74
